Columns and labels:
OATP1B1 = molecular target: T1, OATP1B1 (Homo sapiens, UniProt Q9Y6L6); settings: 5 min, 5 µM
T1 sequence (Q9Y6L6 1-691): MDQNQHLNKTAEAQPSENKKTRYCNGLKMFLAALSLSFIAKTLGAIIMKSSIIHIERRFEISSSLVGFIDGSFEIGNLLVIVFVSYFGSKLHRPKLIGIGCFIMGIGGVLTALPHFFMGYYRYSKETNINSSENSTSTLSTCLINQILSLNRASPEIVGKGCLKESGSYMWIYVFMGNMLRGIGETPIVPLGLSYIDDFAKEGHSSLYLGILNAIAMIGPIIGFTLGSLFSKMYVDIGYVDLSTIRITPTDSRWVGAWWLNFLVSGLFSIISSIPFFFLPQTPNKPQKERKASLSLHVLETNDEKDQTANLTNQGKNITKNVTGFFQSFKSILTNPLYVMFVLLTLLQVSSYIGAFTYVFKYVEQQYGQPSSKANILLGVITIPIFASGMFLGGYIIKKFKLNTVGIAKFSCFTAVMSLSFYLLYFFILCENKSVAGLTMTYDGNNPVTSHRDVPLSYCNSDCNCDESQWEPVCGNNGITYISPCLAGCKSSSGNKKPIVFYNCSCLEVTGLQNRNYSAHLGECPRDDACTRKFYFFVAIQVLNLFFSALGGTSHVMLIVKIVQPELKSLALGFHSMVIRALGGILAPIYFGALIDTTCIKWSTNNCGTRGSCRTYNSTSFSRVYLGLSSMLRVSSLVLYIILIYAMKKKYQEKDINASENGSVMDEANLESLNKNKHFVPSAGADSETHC
Experimental: Expressing OATP1B1/OATP1B3 or MOCK HEK293 cells were utilized to evaluate whether TET is a substrate of these two SLC transporters. Cell culture was performed as mentioned above. Cells were seeded on 96-well plates at the density of 0.8 × 10^5 cells/well. The culture medium was replaced with a medium containing 5 mM sodium butyrate for 24 h before the transport study to enhance the expression of transporters. For the transport assay, the DMEM media were removed and the cells were washed with pre-warmed Krebs–Henseleit buffer twice (0.1 mL/well). The second washing buffer was kept in the wells and the plate was incubated at 37 °C for 5 min before the uptake assay was initiated. […] The incubation solution was removed and the cells were washed with ice-cold transportation buffer three times (0.1 mL/well). […]
In the uptake study of TET by OATP1B1 and OATP1B3 expressing the HEK293 cell line, the uptake clearance (U) of the substrate was calculated according to Equation (5), the transporter-mediated uptake ratio (UR) was calculated by dividing the uptake clearance from transporter-expressing cells to that from the mock cells according to Equation (6), and the inhibition ratio (IR) was calculated according to Equation (7), where p represents the protein content and T is the duration of the incubation time. […]

OATP1B3 = molecular target: T2, OATP1B3 (Homo sapiens, UniProt Q9NPD5); assay: Uptake by OATP1B3-expressing HEK293 cells; settings: human, 5 min
T2 sequence (Q9NPD5 1-702): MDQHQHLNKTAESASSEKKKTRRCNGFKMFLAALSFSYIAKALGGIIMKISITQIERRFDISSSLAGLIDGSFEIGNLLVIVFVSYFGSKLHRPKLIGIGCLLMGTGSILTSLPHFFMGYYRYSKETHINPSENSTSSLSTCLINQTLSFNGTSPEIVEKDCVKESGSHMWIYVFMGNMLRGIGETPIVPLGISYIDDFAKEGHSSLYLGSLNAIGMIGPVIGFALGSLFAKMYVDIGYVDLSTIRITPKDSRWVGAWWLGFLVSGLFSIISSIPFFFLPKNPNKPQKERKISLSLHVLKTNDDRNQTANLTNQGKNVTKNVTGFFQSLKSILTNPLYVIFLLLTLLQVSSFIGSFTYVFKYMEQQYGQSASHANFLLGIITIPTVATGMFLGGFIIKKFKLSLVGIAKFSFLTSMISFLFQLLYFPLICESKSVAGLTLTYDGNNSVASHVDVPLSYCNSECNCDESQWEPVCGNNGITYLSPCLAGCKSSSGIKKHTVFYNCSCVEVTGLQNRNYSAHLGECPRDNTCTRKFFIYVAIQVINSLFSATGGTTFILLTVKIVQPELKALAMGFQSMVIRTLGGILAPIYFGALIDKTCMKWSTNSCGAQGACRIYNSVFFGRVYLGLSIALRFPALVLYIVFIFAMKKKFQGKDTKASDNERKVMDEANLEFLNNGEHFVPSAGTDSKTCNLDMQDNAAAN
Experimental: (§1) Expressing OATP1B1/OATP1B3 or MOCK HEK293 cells were utilized to evaluate whether TET is a substrate of these two SLC transporters. Cell culture was performed as mentioned above. Cells were seeded on 96-well plates at the density of 0.8 × 10^5 cells/well. The culture medium was replaced with a medium containing 5 mM sodium butyrate for 24 h before the transport study to enhance the expression of transporters. For the transport assay, the DMEM media were removed and the cells were washed with pre-warmed Krebs–Henseleit buffer twice (0.1 mL/well). The second washing buffer was kept in the wells and the plate was incubated at 37 °C for 5 min before the uptake assay was initiated. […] The incubation solution was removed and the cells were washed with ice-cold transportation buffer three times (0.1 mL/well). A total of 0.1 mL pure water was added to each well to lyse the cells by repeated freezing and thawing (−196 °C–37 °C, three times). The cell lysate was collected and stored at −40 °C for LC-MS/MS analysis and protein measurement.
(§2) In the uptake study of TET by OATP1B1 and OATP1B3 expressing the HEK293 cell line, the uptake clearance (U) of the substrate was calculated according to Equation (5), the transporter-mediated uptake ratio (UR) was calculated by dividing the uptake clearance from transporter-expressing cells to that from the mock cells according to Equation (6), and the inhibition ratio (IR) was calculated according to Equation (7), where p represents the protein content and T is the duration of the incubation time. (5) U=Clysate/p×T (6) UR=U/UMOCK (7) IR=(1−Uwith inhibitor−Umock with inhibitor/Uwithout inhibitor−Umock without inhibitor)×100

[1] = Bidirectional transport in MOCK LLC-PK1 cells; settings: pig
Experimental: MDR1 expressing LLC-PK1 cells or MOCK LLC-PK1 cells were utilized to identify whether P-gp is involved in the efflux transport across the membrane barrier. Cells were cultured as described above. Cells were seeded at a density of 2 × 10^4 in Millicell® 24-well cell culture plates with a 6.5 mm insert (0.4 µm polycarbonate membrane) from Corning (Kennebunk, ME, USA) 7 days before the experiments. On the day of the experiment, transepithelial electrical resistance (TEER) was measured to assess monolayer integrity. After washing the cells twice with HBSS, transport experiments in either the apical-to-basolateral direction (A-B) or the basolateral-to-apical direction (B-A) were conducted. […] After incubating the plates at 37 °C for 2 h, samples from the receiving and donor wells (50 μL) were taken simultaneously. All the samples were stored at −40 °C for LC-MS/MS analysis.
In the bidirectional transport study in LLC-PK1 cells, the following equations were used to calculate Papp values and the MDR1 efflux ratio.

CYP3A = settings: cited from earlier work
HEK293-MOCK cells = assay: Uptake by MOCK (empty vector) HEK293 cells; settings: TET 5 μM, 5 min
Experimental: as §1, §2

## COc1ccc2cc1Oc1ccc(cc1)C[C@H]1c3cc(c(OC)cc3CCN1C)Oc1c(OC)c(OC)cc3c1[C@H](C2)N(C)CC3 [TET, Tetrandrine]
OATP1B1
  Inhibition Ratio: 11.1
  Uptake Ratio: 1.2
OATP1B3; 5 µM
  Inhibition Ratio: 20.6
  Uptake Clearance: 120 ± 8.61 nM/min/mg Protein
  Uptake Ratio: 1.01
OATP1B3; 5 μM
  Uptake Clearance: 151 ± 25.5 nM/min/mg Protein
[1]
  Papp A→B at 2 h: 1.22 ± 0.07 ×10⁻⁶ cm/s
  Papp B→A at 2 h: 3.83 ± 0.12 ×10⁻⁶ cm/s
[1]; LLC-PK1
  efflux ratio at 2 h: 3.13
CYP3A
  fm (CYP3A, major isoform toward TET): > 90%
HEK293-MOCK cells; MOCK (OATP1B1 set)
  Uptake Clearance: 131 ± 11.3 nM/min/mg Protein
HEK293-MOCK cells; MOCK (OATP1B3 set)
  Uptake Clearance: 126 ± 10.9 nM/min/mg Protein
HEK293-MOCK cells; MOCK+RIF (OATP1B1 set)
  Uptake Clearance: 117 ± 12.8 nM/min/mg Protein
HEK293-MOCK cells; MOCK+RIF (OATP1B3 set)
  Uptake Clearance: 119 ± 8.03 nM/min/mg Protein

Source: publication PMC9655037, “Alternation of Organ-Specific Exposure in LPS-Induced Pneumonia Mice after the Inhalation of Tetrandrine Is Governed by Metabolizing Enzyme Suppression and Lysosomal Trapping” (International Journal of Molecular Sciences, 2022)
